Results on nine molecules are retold here after ChEMBL document CHEMBL3763150, “New antibacterial isocoumarin glycosides from a wetland soil derived fungal strain Metarhizium anisopliae” (2016).

Values after ≈ are worked out from the molar mass of the structure shown. Active and inactive are the calls of the source.

Assay [1] deals with Pseudomonas aeruginosa. Description: Antibacterial activity against clinical isolates of Pseudomonas aeruginosa PAOA incubated for 20 hrs by two fold dilution method. Type of assay: functional.
In assay [2] the test system is Pseudomonas aeruginosa. Description: Antibiofilm activity against clinical isolates of Pseudomonas aeruginosa PAOA at 16 to 64 ug/ml incubated for 20 hrs by crystal violet staining based spectrophotometric analysis. In kind it is functional, organism-based.
Assay [3] concerns Pseudomonas aeruginosa. Kind of assay: Antibacterial activity against clinical isolates of Pseudomonas aeruginosa PAOA assessed as inhibition of pyocyanine secretion at 64 ug/ml. Type of assay: functional, organism-based.
Assay [4] deals with Pseudomonas aeruginosa. Kind of assay: Antibacterial activity against clinical isolates of Pseudomonas aeruginosa PAOA assessed as inhibition of rhamnolipid secretion at 64 ug/ml. In kind it is functional, organism-based.
For assay [5], the system named is Pseudomonas aeruginosa. Description: Antibacterial activity against clinical isolates of Pseudomonas aeruginosa PAOA assessed as inhibition of rhamnolipid secretion at 32 ug/ml. In kind it is functional, organism-based.

Broadly, the MIC is the smallest concentration in the dilution series that meets the test's criterion for growth inhibition. Low values mean a more susceptible organism, high ones a less susceptible organism.

The molecule `C/C=C/CC[C@H]1Cc2cc(O[C@@H]3O[C@H](CO)[C@@H](OC)[C@H](O)[C@H]3O)cc(O)c2C(=O)O1` displayed an MIC against Pseudomonas aeruginosa [1] of over 128 µg/mL.

Consider `C/C=C/C=C/[C@H]1Cc2cc(O[C@@H]3O[C@H](CO)[C@@H](OC)[C@H](O)[C@H]3O)cc(O)c2C(=O)O1`, for which the MIC against Pseudomonas aeruginosa [1] was over 128 µg/mL.

In the assay on Pseudomonas aeruginosa [1], `C/C=C/CC[C@H]1Cc2cc(O[C@@H]3O[C@H](COC(C)=O)[C@@H](OC)[C@H](O)[C@H]3O)c(OC)c(O)c2C(=O)O1` returned an MIC of over 128 µg/mL. The outcome with Pseudomonas aeruginosa [2] was Active. Also, the inhibition entry in the assay with Pseudomonas aeruginosa [3], in the assay with Pseudomonas aeruginosa [4] and in the assay on Pseudomonas aeruginosa [5] was “Active” throughout.

Turning to `C/C=C/CC[C@H]1Cc2cc(O[C@@H]3O[C@H](CO)[C@@H](OC)[C@H](O)[C@H]3O)c(OC)c(O)c2C(=O)O1`, in the assay with Pseudomonas aeruginosa [1], the minimal inhibitory concentration (MIC) is over 128 µg/mL.

Molecule `C/C=C/CC[C@H]1Cc2c(O)c(O[C@@H]3O[C@H](CO)[C@@H](OC)[C@H](O)[C@H]3O)cc(O)c2C(=O)O1` displayed an MIC in the assay on Pseudomonas aeruginosa [1] of over 128 µg/mL.

The molecule `C/C=C/C=C/[C@H]1Cc2cc(O[C@@H]3O[C@H](CO)[C@@H](OC)[C@H](O)[C@H]3O)c(OC)c(O)c2C(=O)O1` came in with a minimum inhibitory concentration (MIC) against Pseudomonas aeruginosa [1] of over 128 µg/mL.

As to `C/C=C/CC[C@H]1Cc2cc(O)c(O[C@@H]3O[C@H](CO)[C@@H](OC)[C@H](O)[C@H]3O)c(O)c2C(=O)O1`, the MIC with Pseudomonas aeruginosa [1] was over 128 µg/mL.

`O=C1C=C(Br)/C(=C/Br)O1` came in with an MIC against Pseudomonas aeruginosa [1] of 128 µg/mL (≈ 504 µM). In addition, the outcome in the assay on Pseudomonas aeruginosa [2] was Active. Moreover, in the assay on Pseudomonas aeruginosa [5], the inhibition entry was “Active”.

Take `C/C=C/CCc1cc2cc(O[C@@H]3O[C@H](CO)[C@@H](OC)[C@H](O)[C@H]3O)c(OC)c(O)c2c(=O)o1`: the MIC with Pseudomonas aeruginosa [1] was over 128 µg/mL.
